Where a chain is given by its changes, count along the chain named.
Legend:
Experiment in all cases: Picrotoxin inhibition of GABA responses, two electrode voltage clamp in Xenopus oocytes
Type in all cases: cell-based
[1] = molecular target: T1, A20′S mutant Drosophila RDL receptor (Drosophila melanogaster, UniProt P25123, A319S)
T1 construct: expressed in transfected cells; host or cells: Xenopus laevis oocytes injected with cRNA
T1 sequence (P25123 45-606 A319S): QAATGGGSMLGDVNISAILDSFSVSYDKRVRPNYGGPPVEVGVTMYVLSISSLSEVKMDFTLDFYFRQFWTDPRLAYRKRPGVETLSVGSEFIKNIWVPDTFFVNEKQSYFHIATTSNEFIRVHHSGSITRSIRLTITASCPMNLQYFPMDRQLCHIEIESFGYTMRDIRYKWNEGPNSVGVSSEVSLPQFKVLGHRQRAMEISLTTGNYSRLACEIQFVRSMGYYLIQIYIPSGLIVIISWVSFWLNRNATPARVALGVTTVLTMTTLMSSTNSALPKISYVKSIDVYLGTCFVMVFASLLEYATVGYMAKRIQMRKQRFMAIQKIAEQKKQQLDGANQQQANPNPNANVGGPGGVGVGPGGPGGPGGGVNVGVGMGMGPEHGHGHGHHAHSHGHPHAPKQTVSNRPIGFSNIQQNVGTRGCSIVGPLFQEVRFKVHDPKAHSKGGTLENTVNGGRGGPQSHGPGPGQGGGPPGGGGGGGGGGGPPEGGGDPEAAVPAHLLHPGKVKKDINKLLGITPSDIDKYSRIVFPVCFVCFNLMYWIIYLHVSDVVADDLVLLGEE
Method: (§1) X. laevis oocyte-positive females were purchased from NASCO (Fort Atkinson, Wisconsin, USA) and maintained according to standard methods. Harvested stage V-VI Xenopus oocytes were washed in four changes of ND96 (96 mM NaCl, 2 mM KCl, 1 mM MgCl2, 1 mM CaCl2, 5 mM HEPES, pH 7.5), de-folliculated in 1.5 mg ml^−1 collagenase Type 1A for approximately 2 h, washed again in four changes of ND96 and stored in ND96 containing 2.5 mM sodium pyruvate, 0.7 mM theophylline and […].
(§2) Drosophila RDL subunit cDNA (kindly gifted from N.Millar) was subcloned into pGEMHE for oocyte expression as previously described ([McGonigle and Lummis, 2010], [Millar et al., 1994]). Site directed mutagenesis was performed with the QuikChange mutagenesis kit (Agilent, La Jolla, CA). cRNA was transcribed in vitro from linearised pGEMHE cDNA template using the mMessage mMachine T7 Transcription kit (Ambion, Austin, Texas, USA). Stage V and VI oocytes were injected with 5 ng cRNA, incubated at 18 °C, and currents recorded 18–24 h post-injection.
(§3) Xenopus oocytes were clamped at −60 mV using an OC-725 amplifier (Warner Instruments, Connecticut, USA), Digidata 1322A and the Strathclyde Electrophysiology Software Package (Department of Physiology and Pharmacology, University of Strathclyde, UK), or using the Roboocyte (MultiChannel Systems). Currents were recorded at 5 kHz and filtered at a frequency of 1 kHz. Micro-electrodes were fabricated from borosilicate glass (GC120TF-10, Harvard Apparatus, Edenbridge, Kent, UK) using a one stage horizontal pull (P-87, Sutter Instrument Company, California, USA) and filled with 3 M KCl. Pipette resistances ranged from 1.0 to 2.0 MΩ. Oocytes were perfused with ND96 at a constant rate of 12 ml min^−1. Drug application was via a simple gravity fed system calibrated to run at the same rate.
(§4) Analysis and curve fitting was performed using Prism v5 (GraphPad Software, San Diego, California, USA). Concentration-response data for each oocyte was normalised to the maximum current for that oocyte. The mean and S.E.M. for a series of oocytes were fitted to the four parameter logistic equation in Prism.

[2] = molecular target: T2, A21′Q mutant Drosophila RDL receptor (Drosophila melanogaster, UniProt P25123, A320Q)
T2 construct: expressed in transfected cells; host or cells: Xenopus laevis oocytes injected with cRNA
T2 sequence (P25123 45-606 A320Q): T1 sequence (P25123 45-606 A319S) with S275A, A276Q
Method: as §1, §2, §3, §4

[3] = molecular target: T3, N-7′H mutant Drosophila RDL receptor (Drosophila melanogaster, UniProt P25123, N292H); details: N-7′H RDL
T3 construct: expressed in transfected cells; host or cells: Xenopus laevis oocytes injected with cRNA
T3 sequence (P25123 45-606 N292H): T1 sequence (P25123 45-606 A319S) with N248H, S275A
Method: as §1, §2, §3, §4

picrotoxin
IC50 [1]: 46 nM
Picrotoxin pIC50 [1]: 7.33 ± 0.13
IC50 [2]: 360 nM
Picrotoxin pIC50 [2]: 6.45 ± 0.25
IC50 [3]: 560 nM
Picrotoxin pIC50 [3]: 6.25 ± 0.64

Reference: PMC4261083, “An atypical residue in the pore of Varroa destructor GABA-activated RDL receptors affects picrotoxin block and thymol modulation” (Insect Biochemistry and Molecular Biology, 2014)
